Reference: US20120164670A1, “METHODS AND KITS FOR MEASURING ENZYME ACTIVITY” (President and Fellows of Harvard College, priority 2009, published 2012)
Read-outs that look alike come from different tables or passages of the source.

What was measured:
Format in all cases: biochemical
[1] = target: T1, SIRT1 (Homo sapiens, UniProt Q96EB6); experiment: PNC1-GDH (non-fluorometric) Nicotinamide Assay of SIRT1 deacetylation; conditions: FIG. 4; Nicotinamide Assay depicted in FIG. 1 (PNC1-GDH); read-out: NAD Km value for SIRT1
T1 sequence (Q96EB6 1-747): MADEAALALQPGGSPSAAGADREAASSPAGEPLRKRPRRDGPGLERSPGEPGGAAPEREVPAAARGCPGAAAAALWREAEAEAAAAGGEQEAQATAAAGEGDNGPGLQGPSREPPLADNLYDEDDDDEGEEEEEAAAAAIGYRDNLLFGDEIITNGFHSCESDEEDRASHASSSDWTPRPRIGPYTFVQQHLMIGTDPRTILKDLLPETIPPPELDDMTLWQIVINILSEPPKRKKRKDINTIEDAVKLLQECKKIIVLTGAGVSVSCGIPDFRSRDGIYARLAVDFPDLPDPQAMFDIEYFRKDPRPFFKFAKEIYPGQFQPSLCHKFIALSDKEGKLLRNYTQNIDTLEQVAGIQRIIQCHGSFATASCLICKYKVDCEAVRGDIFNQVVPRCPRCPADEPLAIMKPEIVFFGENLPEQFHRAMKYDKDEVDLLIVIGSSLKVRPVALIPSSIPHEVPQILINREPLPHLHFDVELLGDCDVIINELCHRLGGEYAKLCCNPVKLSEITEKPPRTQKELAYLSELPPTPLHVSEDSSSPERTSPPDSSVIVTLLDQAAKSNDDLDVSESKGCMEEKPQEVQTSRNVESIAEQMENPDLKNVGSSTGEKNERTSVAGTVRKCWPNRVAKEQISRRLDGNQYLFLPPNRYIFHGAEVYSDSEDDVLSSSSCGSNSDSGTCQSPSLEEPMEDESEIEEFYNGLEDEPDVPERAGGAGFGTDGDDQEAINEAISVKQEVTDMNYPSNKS
Procedure: A SIRT1 enzymatic deacetylation reaction was carried out in the presence of an acetylated substrate and β-NAD. […] Subsequently, a-Ketoglutarate and NADPH were added to the reaction mix. The absorbance was read at 340 nm using an appropriate spectrophotometer (Ro). PNC1 and GDH were then added in excess to induce the coupled conversion of NADPH to NADP (PNC1 first converts NAM to NH3, and subsequently GDH uses the ammonia to oxidize NADPH to NADP). A second reading at 340 nm was then obtained (R1). The difference in absorbance readings, R1-Ro is proportional to the amount of NAM produced in the initial deacetylation reaction, thereby allowing for the measurement of activity. A blank reaction was carried out in the absence of NAD (or absence of Enzyme), as above, and subtracted from each sample in order to normalize the data.
Ex. Substrate Concentration (BIOMOL)=20 uM; NAD Concentration=1 mM
1) Mix the following (final volume 100 uL): • a) 10 uL 10×BIOMOL Buffer (250 mM Tris-Cl [pH=8], 1.37 M NaCl, 27 mM KCl, 10 mM MgCl2) • b) 0.4 uL *H4K16-Lys BIOMOL peptide (from a 5 mM stock for a final concentration of 20 uM) • c) 1 uL of 100 mM B-NAD (for a final concentration of 1 mM) • d) 2 uL SIRT1 enzyme (at 1.2 ug/ul, total ˜2.5 ug) • e) […] ddH20 2) Mix the reaction by pipetting. […] Place the reaction on ice until ready to proceed with reaction 2 (Centrifuge Briefly). […]

[2] = target: T1, SIRT1; experiment: PNC1-OPT fluorescent Nicotinamide Assay of SIRT1 deacetylation
Procedure: A SIRT1 enzymatic deacetylation reaction was carried out in the presence of an acetylated substrate and β-NAD. […] Subsequently, PNC1 was added to the mixture to convert all of the nicotinamide generated during the reaction into ammonia. Additionally, PNC1 may be added directly to the SIRT1 reaction (and the reactions may proceed simultaneously). […] In brief, the products of the PNC1 reaction were reacted with o-phthaladehyde in the presence of DTT. The reaction was allowed to proceed for 1 hour, and subsequently the amount of fluorescent adducts obtained were measured fluorometrically with excitation at ˜413 nm and emission at ˜476 nm. […] A blank reaction was also performed in the absence of NAD.
Prepare a master-mix for the total number of reactions you wish to perform. For each individual reaction, mix the following in the order presented (the total volume for each reaction is 100 uL):
Incubate at 37° C. for the appropriate amount of time (typically 1 hour) Reaction 2: Nicotinamide→Ammonia→Fluorescent adducts Note: When adding the OPT Developer it is advisable to work in a dark or dimly lit setting. Dim the lights prior to adding the developer to each reaction. a) Add 100 uL of the OPT Developer Mix to each reaction. b) Mix each sample by vortexing briefly for 5 s at the highest setting. c) Immediately cover all of the samples with Aluminum foil, and incubate the reactions on an orbital shaker for 1 hour at room temperature. Once covered, ambient lighting may be restored. 3) If necessary samples may be transferred to a 96-well plate for reading (do this under dim light). Read the fluorescence on a fluorometer with filters set to excitation (˜420 nm+/−20, and emission ˜450 nm (+/−20). A 0.1 s or 1 s read is generally recommended.
OPT Developer Reagent: A solution of 10 mM OPT and 10 mM DTT in 100% EtOH. Store at −20° C. in the dark until use. Cover with Aluminum foil in order to minimize exposure to light.

[3] = target: T2, full-length human SIRT1 enzyme (Homo sapiens, UniProt Q96EB6); experiment: Sirtuin assay kit (PNC1-OPT) with hSIRT1 enzyme
T2 construct: 1.1 ug/uL full-length human SIRT1 enzyme
T2 sequence (Q96EB6 1-747): T1 sequence (Q96EB6 1-747)
Procedure: Kit contents are generally stored at −20° C. Modifications or variations in volumes or amounts of components described below are compatible with kits and assays described herein. • 1) Assay Buffer: 2 tubes with 1 mL each of 10× Assay Buffer. Dilute to 1× with ddH20 prior to use. • 2) Non-tagged Peptide Substrate: 1 tube with 140 uL of 5 mM H3K9ac substrate (TARK(ac)STG)) (SEQ ID NO:23). This is a sample substrate only; any substrate may be used in this assay. • 3) β-NAD: a) 1 tube with 450 uL of 10 mM B-NAD, and b) 1 tube with 50 uL of 100 mM B-NAD. In some instances, it is preferable to keep β-NAD in concentrated aliquot form, and dilute it prior to use. • 4) hSIRT1 Enzyme: 1 tube with 400 uL of 1.1 ug/uL full-length human SIRT1 enzyme. • 5) yPNC1 Enzyme: 1 tube with 200 uL of 2 ug/uL yeast PNC1 enzyme • 6) Developing Reagent: 2 vials with 10 mL each 1× Developer (10 mM OPT/10 mM DTT in 100% EtOH). Minimize exposure to light as outlined in the procedure. […]
In some instances, when adding the OPT Developer it is advisable to work in a dark or dimly lit setting. […] Once covered, ambient lighting may be restored. • d) Read the samples. Samples may be transferred to a 96-well plate for reading (do this under dim light). Read the fluorescence on a fluorometer with filters set to excitation ˜420 nm, and emission ˜460 nm. […]

Molecule: NC(=O)C1=CN([C@@H]2O[C@H](COP(=O)(O)OP(=O)(O)OC[C@H]3O[C@@H](n4cnc5c(N)ncnc54)[C@H](O)[C@@H]3O)[C@@H](O)[C@H]2O)C=CC1 [NAD, β-nicotinamide adenine dinucleotide]
- Km [1]: 80 to 100 µM
- Km ([2]; FIG. 8D, Nicotinamide Assay depicted in FIG. 6 (PNC1-OPT), Fleur de Lys peptide as substrate, read-out: NAD Km value for SIRT1): ~200 µM
- Km ([3]; kit protocol, Experiment 2 mastermix, read-out: Km of β-NAD (final concentration = Km)): 150 µM
- Km ([3]; stated in kit protocol (blank control note), read-out: Km for NAD): ~160 µM

Molecule: Oc1ccc(C=Cc2cc(O)cc(O)c2)cc1 [Resveratrol, reference compound]
- effect on SIRT1 deacetylase activity on the Fleur de Lys substrate ([2]; FIG. 10C, 100 uM, 75 uM β-NAD and 25 uM Fleur de Lys substrate): activation of SIRT1 deacetylase activity

Molecule: Adenosine diphosphate ribose [ADPr, reference compound]
- mechanism of SIRT1 inhibition ([2]; FIG. 19/20, Vmax and Vmax/K vs [ADPr] for β-NAD and H3K9 peptide): competitive inhibitor of β-NAD

Molecule: DBC1: endogenous SIRT1 protein inhibitor
- effect of concentration on SIRT1 activity (dose titration) ([2]; FIG. 21B, H3K9-L peptide substrate): inversely correlates with SIRT1 activity
